Reference: PMC12363935, “Unc-51 Like Kinase 3 (ULK3) is essential for autophagy and cell survival in multiple myeloma” (Research Square, 2025)
pIC50: −log10 of the molar value.

Experiments:
Assay in all cases: Kinase profiling assay (Reaction Biology), 10-dose IC50, 10 μM ATP
Format in all cases: biochemical
JAK2 = target: T1, JAK2 (Homo sapiens, UniProt O60674); conditions: NA = no activity
T1 construct: purchased Reaction Biology Corporation
Procedure: (§1) 310 and refinement were performed with COOT [14] and Phenix.Refine to obtain a clear electron
(§2) 311 density map (1Fo-Fc) for compound MA9-060, which was built into the structure near the end of
(§3) 312 iterative cycles of model building and refinement. Crystal parameters, data collection statistics and
(§4) 313 refinement statistics are summarized in Supplementary Fig. 4D and deposited in the protein
(§5) 314 databank with PDB code 8V1M.
(§6) 317 The compounds under investigation were tested by Reaction Biology Corporation against four
(§7) 318 specific kinases in this study (JAK2, ULK1, ULK2, ULK3). Each compound was provided as a
(§8) 319 10 mM stock solution. To facilitate dissolution, the compounds were subjected to gentle heating.
(§9) 320 Subsequent testing involved the evaluation of the compounds using a 10-dose IC50 mode,
(§10) Additionally, the control compound,
(§11) Throughout these experiments, reactions were conducted using a standardized concentration
(§12) 325 The data collected during these assays encompass raw data, % enzyme activity (relative to DMSO
(§13) 327 activities at the highest concentration of compounds were less than 65%. The IC50 summary,
(§14) 328 detailing the inhibitory concentrations of the compounds against the respective kinases, is
(§15) 331 Bromodomain profiling assay
(§16) 333 evaluated against Bromodomain 1 by Reaction Biology Corporation.
(§17) 334 The compounds were subjected to testing using a 10-dose IC50 singlet approach, involving a 3-
(§18) 335 fold serial dilution starting at 10 μM, specifically against BRD4-1. Additionally, as a benchmark,
(§19) 337 dilution starting at 10 μM.
(§20) 338 For ligand and detection purposes, the H4/4Ac ligand, representing the Histone H4 peptide (1-21)
(§21) 339 with acetylation at lysine residues K5, K8, K12, and K16, and tagged with Biotin, was utilized.

ULK1 = target: T2, ULK1 (Homo sapiens, UniProt O75385)
T2 construct: purchased Reaction Biology Corporation
T2 sequence (O75385 1-1050): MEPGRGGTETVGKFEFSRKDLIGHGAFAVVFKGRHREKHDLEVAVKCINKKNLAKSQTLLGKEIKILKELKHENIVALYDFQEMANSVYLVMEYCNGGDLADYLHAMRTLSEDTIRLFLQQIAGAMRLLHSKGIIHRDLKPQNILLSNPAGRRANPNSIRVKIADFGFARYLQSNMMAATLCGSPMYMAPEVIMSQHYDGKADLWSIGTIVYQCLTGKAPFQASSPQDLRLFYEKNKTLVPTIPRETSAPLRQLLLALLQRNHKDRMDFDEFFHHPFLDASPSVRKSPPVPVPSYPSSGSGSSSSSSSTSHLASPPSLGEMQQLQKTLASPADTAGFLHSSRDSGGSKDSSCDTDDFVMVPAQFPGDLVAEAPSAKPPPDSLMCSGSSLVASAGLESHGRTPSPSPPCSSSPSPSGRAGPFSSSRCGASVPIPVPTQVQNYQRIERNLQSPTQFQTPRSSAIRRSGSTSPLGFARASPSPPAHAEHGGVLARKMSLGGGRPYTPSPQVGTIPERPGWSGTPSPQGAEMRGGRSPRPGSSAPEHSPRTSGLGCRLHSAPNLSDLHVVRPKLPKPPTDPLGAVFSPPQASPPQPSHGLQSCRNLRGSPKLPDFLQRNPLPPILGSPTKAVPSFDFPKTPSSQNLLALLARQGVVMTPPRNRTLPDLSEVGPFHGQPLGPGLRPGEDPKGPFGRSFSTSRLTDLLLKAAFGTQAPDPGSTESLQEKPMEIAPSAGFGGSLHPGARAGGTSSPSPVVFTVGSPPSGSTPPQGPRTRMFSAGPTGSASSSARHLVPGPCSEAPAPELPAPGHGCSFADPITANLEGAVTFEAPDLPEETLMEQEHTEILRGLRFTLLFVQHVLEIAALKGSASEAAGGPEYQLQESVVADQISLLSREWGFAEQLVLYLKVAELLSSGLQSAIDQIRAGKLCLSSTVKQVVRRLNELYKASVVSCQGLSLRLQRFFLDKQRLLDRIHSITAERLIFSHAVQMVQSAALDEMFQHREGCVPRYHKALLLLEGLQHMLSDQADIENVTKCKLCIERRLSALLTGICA
Procedure: as §1, §2, §3, §4, §5, §6, §7, §8, §9, §10, §11, §12, §13, §14, §15, §16, §17, §18, §19, §20, §21

ULK2 = target: T3, ULK2 (Homo sapiens, UniProt Q8IYT8); conditions: NA = no activity
T3 construct: purchased Reaction Biology Corporation
T3 sequence (Q8IYT8 1-1036): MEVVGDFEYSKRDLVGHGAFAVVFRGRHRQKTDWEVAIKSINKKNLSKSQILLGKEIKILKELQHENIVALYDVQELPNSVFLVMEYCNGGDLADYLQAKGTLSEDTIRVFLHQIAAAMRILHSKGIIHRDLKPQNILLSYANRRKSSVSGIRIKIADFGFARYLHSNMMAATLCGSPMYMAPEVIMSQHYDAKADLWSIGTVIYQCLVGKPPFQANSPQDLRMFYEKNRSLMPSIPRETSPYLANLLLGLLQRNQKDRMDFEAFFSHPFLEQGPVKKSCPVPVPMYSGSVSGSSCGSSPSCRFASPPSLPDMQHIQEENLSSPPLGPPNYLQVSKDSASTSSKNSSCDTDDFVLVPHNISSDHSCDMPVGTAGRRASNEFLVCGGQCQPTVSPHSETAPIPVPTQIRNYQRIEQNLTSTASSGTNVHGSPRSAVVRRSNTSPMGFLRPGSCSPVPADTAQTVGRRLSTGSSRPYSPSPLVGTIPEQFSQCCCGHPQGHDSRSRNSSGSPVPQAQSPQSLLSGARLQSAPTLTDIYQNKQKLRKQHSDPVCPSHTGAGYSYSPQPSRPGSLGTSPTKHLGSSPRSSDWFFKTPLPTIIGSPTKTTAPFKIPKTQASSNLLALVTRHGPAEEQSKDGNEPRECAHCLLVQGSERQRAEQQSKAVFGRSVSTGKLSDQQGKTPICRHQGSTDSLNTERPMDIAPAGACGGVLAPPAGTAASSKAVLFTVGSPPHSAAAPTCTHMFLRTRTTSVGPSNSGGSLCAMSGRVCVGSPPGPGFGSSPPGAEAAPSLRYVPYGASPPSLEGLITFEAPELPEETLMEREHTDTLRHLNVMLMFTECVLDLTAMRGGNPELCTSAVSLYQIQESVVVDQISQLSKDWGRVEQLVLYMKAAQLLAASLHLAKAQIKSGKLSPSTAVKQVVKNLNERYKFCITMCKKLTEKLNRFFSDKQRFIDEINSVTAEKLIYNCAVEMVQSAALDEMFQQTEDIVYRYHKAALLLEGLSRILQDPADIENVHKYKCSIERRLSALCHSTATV
Procedure: as §1, §2, §3, §4, §5, §6, §7, §8, §9, §10, §11, §12, §13, §14, §15, §16, §17, §18, §19, §20, §21

T1 sequence (O60674 whole entry): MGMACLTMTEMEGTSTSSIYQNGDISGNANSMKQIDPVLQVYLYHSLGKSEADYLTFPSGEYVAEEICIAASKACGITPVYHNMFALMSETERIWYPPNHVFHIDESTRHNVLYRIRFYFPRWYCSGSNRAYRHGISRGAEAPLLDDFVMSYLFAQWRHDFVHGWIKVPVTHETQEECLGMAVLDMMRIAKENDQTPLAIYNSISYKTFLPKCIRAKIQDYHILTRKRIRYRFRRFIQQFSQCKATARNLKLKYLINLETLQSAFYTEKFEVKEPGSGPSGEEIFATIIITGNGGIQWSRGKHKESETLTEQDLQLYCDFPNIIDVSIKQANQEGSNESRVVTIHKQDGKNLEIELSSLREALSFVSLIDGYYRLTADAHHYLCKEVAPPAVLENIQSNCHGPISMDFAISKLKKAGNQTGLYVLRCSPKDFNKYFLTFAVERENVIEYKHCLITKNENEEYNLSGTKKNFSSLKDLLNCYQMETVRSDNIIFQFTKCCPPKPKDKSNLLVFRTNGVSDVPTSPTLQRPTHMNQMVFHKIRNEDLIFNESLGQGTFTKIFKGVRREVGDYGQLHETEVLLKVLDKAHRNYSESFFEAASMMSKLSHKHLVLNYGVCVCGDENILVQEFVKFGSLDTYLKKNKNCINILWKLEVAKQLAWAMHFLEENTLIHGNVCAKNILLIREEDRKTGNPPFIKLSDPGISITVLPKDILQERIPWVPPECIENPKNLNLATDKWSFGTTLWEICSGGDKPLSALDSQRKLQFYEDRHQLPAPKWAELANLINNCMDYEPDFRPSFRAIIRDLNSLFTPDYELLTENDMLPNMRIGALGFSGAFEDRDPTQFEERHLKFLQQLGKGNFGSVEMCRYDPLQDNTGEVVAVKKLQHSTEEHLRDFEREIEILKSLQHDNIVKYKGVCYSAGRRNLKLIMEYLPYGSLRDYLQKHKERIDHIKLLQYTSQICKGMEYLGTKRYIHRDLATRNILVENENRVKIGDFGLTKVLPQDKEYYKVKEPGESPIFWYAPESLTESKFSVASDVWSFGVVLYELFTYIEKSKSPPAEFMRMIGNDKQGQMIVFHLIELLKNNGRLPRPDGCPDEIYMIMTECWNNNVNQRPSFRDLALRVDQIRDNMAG

SMILES: Cc1cnc(Nc2ccc(C3CCN(C)CC3)c(F)c2)nc1Nc1ccc(Cl)c(NS(=O)(=O)C(C)(C)C)c1 [MA9060]
- IC50 (JAK2): 6.7 nM
- pIC50 (ULK1): 5.77
- IC50 (ULK2): 4300 nM
